Patent publication US8273771B2, “Ischemic disorder or disease inhibitors” (Pronas Pharma AB, priority 2007, dated 2012)

Key:
Format in all cases: in vivo, rat
rats with induced SAH = test: Cortical blood flow measured with Laser Doppler; details: intracisternal injection
Source text: Subarachnoid hemorrhage was induced by a model originally devised by Svendgaard et al and carefully described by Prunell et al (2003). Male Sprague-Dawley rats (350-400 g) were anaesthetized using 5% halothane (Halocarbon Laboratories, River Edge, N.J.) in N2O/O2 (30:70). The rat was intubated and artificially ventilated with inhalation of 0.5-1.5% halothane in N2O/O2 (70:30) during the surgical procedure. The depth of anaesthesia was carefully monitored and the respiration checked by regularly withdrawing arterial blood samples for blood gas analysis (Radiometer, Copenhagen, Denmark). An electric temperature probe was inserted into the rectum of the rat to record the temperature, which was maintained at 37° C. An arterial catheter to measure blood pressure was placed in the tail artery and a catheter to monitor intracranial pressure (ICP) was placed in the subarachnoid space under the subocciptal membrane. At either side of the skull, 3 mm from the midline and 4 mm anteriorly from the bregma, holes were drilled through the skull bone down to dura mater (without perforation) allowing the placement of two laser-Doppler flow probes to measure cortical CBF. Finally, a 27G blunt canula with side hole was introduced 6.5 mm anterior to bregma in the midline at an angle of 30° to the vertical. […]

pERK1/2 = test: Immunohistochemistry of cerebral arteries after SAH; details: smooth muscle cells; sham 100±3%, SAH 188±7%
ETA receptor mRNA = test: Real-time PCR of receptor mRNA in cerebral arteries after SAH; details: MCA, BA and circle of Willis grouped
Description: (§1) To quantify mRNA for the ETA, ETB and 5-HT1B receptors, RT-PCR and real-time detection monitoring the PCR products was employed. Total cellular RNA was extracted from BA, MCA and circle of Willis using the Trizol RNA isolation kit (Invitrogen, USA) following the suppliers instructions. Briefly, the arteries were homogenized in 1 ml of Trizol (Invitrogen, Sweden) by using a TissueLyser (VWR, Sweden). Subsequently 200 μl of chloroform was added and the samples were incubated in room temperature for 3 min, followed by centrifugation at 15000 g for 15 min at 4° C. The supernatant was collected and the organic phase discarded. 200 μl of chloroform was again added to remove all traces of phenol and the samples were centrifuged at 15000 g for 15 at 4° C. The aqueous supernatant was again collected and to precipitate the RNA equal amount of isopropanol was added and the samples incubated overnight at −20° C.
(§2) Subsequently, the RNA was centrifuged at 15000 g for 20 min at 4° C. […] Total RNA was determined using a GeneQuant Pro spectrophotometer measuring absorbance at 260/280 (Amersham Pharmacia Biotech, Uppsala, Sweden).
(§3) Reverse transcription of total RNA to cDNA was carried out using the Gene Amp RNA kit (Perkin-Elmer Applied Biosystems, USA) in a Perkin-Elmer 2400 PCR machine at 42° C. for 90 min and then 72° C. for 10 min. The real-time quantitative PCR was performed with the GeneAmp SYBR Green PCR kit (PE Applied Biosystems) in a Perkin-Elmer real-time PCR machine (GeneAmp 5700 sequence detection system). […] The system automatically monitors the binding of a fluorescent dye to double-strand DNA by real-time detection of the fluorescence during each cycle of PCR amplification. […]
(§4) PCR experiments were performed on BA, MCA and circle of Willis from SAH, SAH treated with raf inhibitor or PKC inhibitor and sham operated rats. Data were analysed with the comparative cycle threshold (CT) method (28). The CT values of EF-1 mRNA were used as a reference to quantify the relative amount of ETA, ETB and 5-HT1B mRNA. […]

ETB receptor mRNA = test: as above; details: MCA, BA and circle of Willis grouped; SAH rats
Description: as §1, §2, §3, §4

5-HT1B receptor mRNA = test: as above; details: MCA, BA and circle of Willis grouped; SAH rats
Description: as §1, §2, §3, §4

Structure (SMILES)	effect of injection alone on cortical blood flow measured with Laser Doppler (rats with induced SAH)	pERK1/2 level, fluorescence compared to sham (pERK1/2) [%]	expression of ETA receptor mRNA, difference between sham, SAH and treated SAH (ETA receptor mRNA)	enhanced expression of ETB receptor mRNA (ETB receptor mRNA)	enhanced expression of 5-HT1B receptor mRNA (5-HT1B receptor mRNA)
Cn1cc(C2=C(c3cn(CCCN)c4ccccc34)C(=O)NC2=O)c2ccccc21 [RO-31-7549]	no effect				
Oc1cc(-c2nc(-c3ccccc3)[nH]c2-c2ccncc2)ccc1Cl [SB386023-b]		102±5	no difference	inhibited	inhibited
